Read-outs that look alike come from different tables or passages of the source.
Tests used:
Type in all cases: in vivo
Spodoptera littoralis = Spodoptera littoralis (Egyptian cotton leaf worm) leaf disc test; details: foliar, 72 h, application rate 200 ppm, cotton leaf discs sprayed, L1 larvae, 3 days after infestation, read-out: control (at least one of mortality, anti-feedant effect, growth inhibition)
Method: Spodoptera littoralis (Egyptian Cotton Leaf Worm)
Cotton leaf discs were placed on agar in 24-well microtiter plates and sprayed with aqueous test solutions prepared from 10′000 ppm DMSO stock solutions. After drying the leaf discs were infested with five L1 larvae. The samples were assessed for mortality, anti-feedant effect, and growth inhibition in comparison to untreated samples 3 days after infestation. Control of Spodoptera littoralis by a test sample is when at least one of mortality, anti-feedant effect, and growth inhibition is higher than the untreated sample.

Plutella xylostella = Plutella xylostella (diamond back moth) artificial diet test; details: 120 h, read-out: control (mortality and growth inhibition)
Method: Plutella xylostella (Diamond Back Moth):
(§1) 24-well microtiter plates with artificial diet were treated with aqueous test solutions prepared from 10′000 ppm DMSO stock solutions by pipetting. After drying, the plates were infested with L2 larvae (10 to 15 per well). The samples were assessed for mortality and growth inhibition in comparison to untreated samples 5 days after infestation.

Diabrotica Balteata = assay: Diabrotica balteata (corn root worm) maize sprout test; details: 96 h, read-out: control (mortality and growth inhibition)
Method: Diabrotica Balteata, (Corn Root Worm)
as §1, with “Maize sprouts, placed on an agar layer in 24-well” for “24-well”, “plates” for “plates with artificial diet”, “spraying.” for “pipetting.”, “(6” for “(10”, “10” for “15”, “4” for “5”

Thrips tabaci = Thrips tabaci (onion thrips) leaf disc test; details: foliar, 144 h, read-out: control (mortality)
Method: Thrips tabaci (Onion Thrips):
(§2) Sunflower leaf discs were placed on agar in 24-well microtiter plates and sprayed with aqueous test solutions prepared from 10′000 ppm DMSO stock solutions. After drying the leaf discs were infested with a thrips population of mixed ages. The samples were assessed for mortality 6 days after infestation.

Myzus persicae = Myzus persicae (green peach aphid) leaf disc test; details: foliar, 144 h, read-out: control (mortality)
Method: Myzus persicae (Green Peach Aphid):
Sunflower leaf discs were placed on agar in a 24-well microtiter plate and sprayed with test solutions at an application rate of 200 ppm. After drying, the leaf discs were infested with an aphid population of mixed ages. After an incubation period of 6 DAT, samples were checked for mortality.

Tetranychus urticae = Tetranychus urticae (two-spotted spider mite) leaf disc test; details: foliar, 192 h, application rate 200 ppm, bean leaf discs sprayed, 8 days after infestation, read-out: control (mortality on mixed population, mobile stages)
Method: Tetranychus urticae (Two-Spotted Spider Mite):
as §2, with “Bean” for “Sunflower”, “discs” for “discs were placed”, “were” for “and”, “mite” for “thrips”, “on mixed population (mobile stages) 8” for “6”

[1] = application rate 200 ppm, artificial diet, L2 larvae, 5 days after infestation
[2] = application rate 200 ppm, maize sprouts sprayed, L2 larvae, 4 days after infestation
[3] = application rate 200 ppm, sunflower leaf discs sprayed, mixed ages, 6 days after infestation
[4] = application rate 200 ppm, sunflower leaf discs sprayed, mixed ages, 6 DAT

CCN(C(=O)c1cc(-c2cnn(-c3c(C(F)(F)F)c(OS(=O)(=O)C(F)(F)C(F)(F)C(F)(F)C(F)(F)F)nn3C)c2)ccc1Cl)C1CC1 [Compound 13, [5-[4-[4-chloro-3-[cyclopropyl(ethyl)carbamoyl]phenyl]pyrazol-1-yl]-1-methyl-4-(trifluoromethyl)pyrazol-3-yl] 1,1,2,2,3,3,4,4,4-nonafluorobutane-1-sulfonate]
≥ 80%: percent control (mortality, anti-feedant effect or growth inhibition) at 200 ppm (Spodoptera littoralis) | mortality at 200 ppm (Plutella xylostella) | mortality at 200 ppm (Diabrotica Balteata) | mortality at 200 ppm (Thrips tabaci)

CCN(C(=O)c1cc(-c2cnn(-c3c(C(F)(F)F)c(OS(=O)(=O)C(F)(F)C(F)(F)F)nn3C)c2)ccc1Cl)C1CC1 [Compound 14, [5-[4-[4-chloro-3-[cyclopropyl(ethyl)carbamoyl]phenyl]pyrazol-1-yl]-1-methyl-4-(trifluoromethyl)pyrazol-3-yl] 1,1,2,2,2-pentafluoroethanesulfonate]
≥ 80%: percent control (mortality, anti-feedant effect or growth inhibition) at 200 ppm (Spodoptera littoralis) | mortality at 200 ppm (Plutella xylostella; [1]) | mortality at 200 ppm (Diabrotica Balteata; [2]) | mortality at 200 ppm (Thrips tabaci; [3]) | mortality at 200 ppm (Myzus persicae; [4])

Cn1nc(OS(=O)(=O)C(F)(F)C(F)(F)F)c(C(F)(F)F)c1-n1cc(-c2ccc(Cl)c(C(=O)NC3CC3)c2)cn1 [Compound 20, [5-[4-[4-chloro-3-(cyclopropylcarbamoyl)phenyl]pyrazol-1-yl]-1-methyl-4-(trifluoromethyl)pyrazol-3-yl] 1,1,2,2,2-pentafluoroethanesulfonate]
≥ 80%: percent control (mortality, anti-feedant effect or growth inhibition) at 200 ppm (Spodoptera littoralis) | mortality at 200 ppm (Plutella xylostella; [1]) | mortality at 200 ppm (Diabrotica Balteata; [2]) | mortality at 200 ppm (Thrips tabaci; [3]) | mortality at 200 ppm (Tetranychus urticae)

CCN(C(=O)c1cc(-c2cnn(-c3c(C(F)(F)F)c(OS(=O)(=O)C(F)(C(F)(F)F)C(F)(F)F)nn3C)c2)cnc1Cl)C1CC1 [Compound 23, [5-[4-[6-chloro-5-[cyclopropyl(ethyl)carbamoyl]-3-pyridyl]pyrazol-1-yl]-1-methyl-4-(trifluoromethyl)pyrazol-3-yl] 1,1,1,2,3,3,3-heptafluoropropane-2-sulfonate]
≥ 80%: percent control (mortality, anti-feedant effect or growth inhibition) at 200 ppm (Spodoptera littoralis) | mortality at 200 ppm (Plutella xylostella; [1]) | mortality at 200 ppm (Diabrotica Balteata; [2]) | mortality at 200 ppm (Tetranychus urticae) | mortality at 200 ppm (Myzus persicae; [4])

Cn1nc(OS(=O)(=O)C(F)(C(F)(F)F)C(F)(F)F)c(C(F)(F)F)c1-n1cc(-c2cnc(Cl)c(C(=O)NC3(C#N)CC3)c2)cn1 [Compound 24, [5-[4-[6-chloro-5-[(1-cyanocyclopropyl)carbamoyl]-3-pyridyl]pyrazol-1-yl]-1-methyl-4-(trifluoromethyl)pyrazol-3-yl] 1,1,1,2,3,3,3-heptafluoropropane-2-sulfonate]
≥ 80%: percent control (mortality, anti-feedant effect or growth inhibition) at 200 ppm (Spodoptera littoralis) | mortality at 200 ppm (Plutella xylostella; [1]) | mortality at 200 ppm (Diabrotica Balteata; [2]) | mortality at 200 ppm (Tetranychus urticae)

Cn1nc(OS(=O)(=O)C(F)(F)C(F)(F)C(F)(F)C(F)(F)F)c(C(F)(F)F)c1-n1cc(-c2cnc(Cl)c(C(=O)NC3CC3)c2)cn1 [Compound 27, [5-[4-[6-chloro-5-(cyclopropylcarbamoyl)-3-pyridyl]pyrazol-1-yl]-1-methyl-4-(trifluoromethyl)pyrazol-3-yl] 1,1,2,2,3,3,4,4,4-nonafluorobutane-1-sulfonate]
≥ 80%: percent control (mortality, anti-feedant effect or growth inhibition) at 200 ppm (Spodoptera littoralis) | mortality at 200 ppm (Plutella xylostella) | mortality at 200 ppm (Diabrotica Balteata) | mortality at 200 ppm (Thrips tabaci) | mortality at 200 ppm (Myzus persicae)

CN(C(=O)c1cc(-c2cnn(-c3c(C(F)(F)F)c(OS(=O)(=O)C(F)(F)C(F)(F)C(F)(F)C(F)(F)F)nn3C)c2)cnc1Cl)C1CC1 [Compound 28, [5-[4-[6-chloro-5-[cyclopropyl(methyl)carbamoyl]-3-pyridyl]pyrazol-1-yl]-1-methyl-4-(trifluoromethyl)pyrazol-3-yl] 1,1,2,2,3,3,4,4,4-nonafluorobutane-1-sulfonate]
≥ 80%: percent control (mortality, anti-feedant effect or growth inhibition) at 200 ppm (Spodoptera littoralis) | mortality at 200 ppm (Plutella xylostella) | mortality at 200 ppm (Diabrotica Balteata) | mortality at 200 ppm (Thrips tabaci)

CCN(C(=O)c1cc(-c2cnn(-c3c(C(F)(F)F)c(OS(=O)(=O)C(F)(F)C(F)(F)C(F)(F)C(F)(F)F)nn3C)c2)cnc1Cl)C1CC1 [Compound 29, [5-[4-[6-chloro-5-[cyclopropyl(ethyl)carbamoyl]-3-pyridyl]pyrazol-1-yl]-1-methyl-4-(trifluoromethyl)pyrazol-3-yl] 1,1,2,2,3,3,4,4,4-nonafluorobutane-1-sulfonate]
≥ 80%: mortality at 200 ppm (Plutella xylostella) | mortality at 200 ppm (Diabrotica Balteata) | mortality at 200 ppm (Myzus persicae)

CN(C(=O)c1cc(-c2cnn(-c3c(C(F)(F)F)c(OS(=O)(=O)C(F)(F)C(F)(F)C(F)(F)C(F)(F)F)nn3C)c2)cnc1Cl)C1(C#N)CC1 [Compound 31, [5-[4-[6-chloro-5-[(1-cyanocyclopropyl)-methyl-carbamoyl]-3-pyridyl]pyrazol-1-yl]-1-methyl-4-(trifluoromethyl)pyrazol-3-yl] 1,1,2,2,3,3,4,4,4-nonafluorobutane-1-sulfonate]
≥ 80%: percent control (mortality, anti-feedant effect or growth inhibition) at 200 ppm (Spodoptera littoralis) | mortality at 200 ppm (Plutella xylostella) | mortality at 200 ppm (Diabrotica Balteata) | mortality at 200 ppm (Thrips tabaci)

CCN(C(=O)c1cc(-c2cc(-c3c(C(F)(F)F)c(OS(=O)(=O)C(F)(F)C(F)(F)C(F)(F)C(F)(F)F)nn3C)no2)ccc1Cl)C1CC1 [Compound 41, [5-[5-[4-chloro-3-[cyclopropyl(ethyl)carbamoyl]phenyl]isoxazol-3-yl]-1-methyl-4-(trifluoromethyl)pyrazol-3-yl] 1,1,2,2,3,3,4,4,4-nonafluorobutane-1-sulfonate]
≥ 80%: mortality at 200 ppm (Diabrotica Balteata) | mortality at 200 ppm (Myzus persicae)

CN(C(=O)c1cc(-c2cc(-c3c(C(F)(F)F)c(OS(=O)(=O)C(F)(F)C(F)(F)C(F)(F)C(F)(F)F)nn3C)no2)ccc1Cl)C1(C#N)CC1 [Compound 43, [5-[5-[4-chloro-3-[(1-cyanocyclopropyl)-methyl-carbamoyl]phenyl]isoxazol-3-yl]-1-methyl-4-(trifluoromethyl)pyrazol-3-yl] 1,1,2,2,3,3,4,4,4-nonafluorobutane-1-sulfonate]
≥ 80%: percent control (mortality, anti-feedant effect or growth inhibition) at 200 ppm (Spodoptera littoralis) | mortality at 200 ppm (Plutella xylostella) | mortality at 200 ppm (Diabrotica Balteata) | mortality at 200 ppm (Thrips tabaci)

Cn1nc(OS(=O)(=O)C(F)(C(F)(F)F)C(F)(F)F)c(C(F)(F)F)c1-n1cc(-c2ccc(Cl)c(C(=O)N(/C(F)=C(\F)C(F)(F)F)C3(C#N)CC3)c2)cn1 [Compound 58, [5-[4-[4-chloro-3-[(1-cyanocyclopropyl)-[(E)-1,2,3,3,3-pentafluoroprop-1-enyl]carbamoyl]phenyl]pyrazol-1-yl]-1-methyl-4-(trifluoromethyl)pyrazol-3-yl] 1,1,1,2,3,3,3-heptafluoropropane-2-sulfonate]
≥ 80%: percent control (mortality, anti-feedant effect or growth inhibition) at 200 ppm (Spodoptera littoralis) | mortality at 200 ppm (Plutella xylostella; [1]) | mortality at 200 ppm (Diabrotica Balteata; [2]) | mortality at 200 ppm (Tetranychus urticae)

Cn1nc(OS(=O)(=O)C(F)(C(F)(F)F)C(F)(F)F)c(C(F)(F)F)c1-n1cc(-c2ccc(Cl)c(C(=O)NC3(C(F)F)CC3)c2)cn1 [Compound 64, [5-[4-[4-chloro-3-[[1-(difluoromethyl)cyclopropyl]carbamoyl]phenyl]pyrazol-1-yl]-1-methyl-4-(trifluoromethyl)pyrazol-3-yl] 1,1,1,2,3,3,3-heptafluoropropane-2-sulfonate]
≥ 80%: percent control (mortality, anti-feedant effect or growth inhibition) at 200 ppm (Spodoptera littoralis) | mortality at 200 ppm (Plutella xylostella; [1]) | mortality at 200 ppm (Tetranychus urticae) | mortality at 200 ppm (Myzus persicae; [4])

Cn1nc(OS(=O)(=O)C(F)(C(F)(F)F)C(F)(F)F)c(C(F)(F)F)c1-n1cc(-c2ccc(Cl)c(C(N)=O)c2)cn1 [Compound 67, [5-[4-(3-carbamoyl-4-chloro-phenyl)pyrazol-1-yl]-1-methyl-4-(trifluoromethyl)pyrazol-3-yl] 1,1,1,2,3,3,3-heptafluoropropane-2-sulfonate]
≥ 80%: percent control (mortality, anti-feedant effect or growth inhibition) at 200 ppm (Spodoptera littoralis) | mortality at 200 ppm (Plutella xylostella; [1]) | mortality at 200 ppm (Tetranychus urticae)
